Results as given in PubChem BioAssay AID256 (DTP/NCI, 2004).
Inconclusive results and toxic doses are left out.

Tested on: CD2F1 mice, L1210 leukemia ip, survival T/C
Experiment: NCI In Vivo Anticancer Drug Screen. Data for tumor model L1210 Leukemia (intraperitoneal) in CD2F1 (CDF1) mice
Conditions: endpoint: mean survival time, schedule: Q01DX009 (ip), higher = longer survival
How it was run: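 Tumor-bearing mice (transplanted tumor) were split into treated and vehicle control groups, and the measured endpoint of each treated group was divided by that of its vehicle controls.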

COC1=CCC2=C(C1)CC(C)O2 (configuration not stated)
T/C (dose: 100.0 mg/kg/injection, vehicle: acetone): 102 % of control
T/C (dose: 200.0 mg/kg/injection, vehicle: acetone): 107 % of control

c1ccc(-c2c3ccccc3c(-c3ccccc3)c3c2ccc2ccccc23)cc1
T/C (dose: 6.25 mg/kg/injection, vehicle: Klucel (hydroxypropylcellulose) (HPC)): 89 % of control
T/C (dose: 12.5 mg/kg/injection, vehicle: Klucel (hydroxypropylcellulose) (HPC)): 89 % of control
T/C (dose: 25.0 mg/kg/injection, vehicle: Klucel (hydroxypropylcellulose) (HPC)): 91 % of control

O=c1[nH]c(=O)n(O)c2nc[nH]c12
T/C (dose: 25.0 mg/kg/injection, vehicle: saline with Tween-80): 102 % of control
T/C (dose: 50.0 mg/kg/injection, vehicle: saline with Tween-80): 98 % of control
